Measurements as given in US7767659B2, “Synthesis of naturally occurring ecteinascidins and related compounds” (Pharma Mar, S.A., priority 2002, dated 2010).

Key:
[1] = test system: A-549; assay: cells; details: Homo sapiens, A549, 48 h; for GI50: read-out: GI50 A549; for CC50: read-out: LC50 A549; for IC (TGI): read-out: TGI A549
Method in brief: (§1)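 Colorimetric SRB read (490 nm) on triplicate wells after 48 h at 37 °C, 5% CO2. Dose range 10 to 10^−8 μg/ml; 5×10^3 cells/well pre-attached 18 h.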

[2] = test system: HT-29; assay: cells; details: Homo sapiens, HT-29, 48 h; for GI50: read-out: GI50 HT29; for CC50: read-out: LC50 HT29; for IC (TGI): read-out: TGI HT29
Method in brief: as §1

[3] = test system: LoVo; assay: cells; details: Homo sapiens, LoVo, 48 h; for GI50: read-out: GI50 LOVO; for CC50: read-out: LC50 LOVO; for IC (TGI): read-out: TGI LOVO
Method in brief: as §1

[4] = test system: DU-145; assay: Inhibition of cells growth by colorimetric assay (SRB); details: Homo sapiens, DU-145, 48 h; for GI50: read-out: GI50 DU145; for CC50: read-out: LC50 DU145; for IC (TGI): read-out: TGI DU145
Method in brief: as §1

[5] = test system: HeLa-APL; assay: as above; details: Homo sapiens, 48 h; for GI50: read-out: GI50 HELA-APL; for CC50: read-out: LC50 HELA-APL; for IC (TGI): read-out: TGI HELA-APL
Method in brief: as §1

[6] = test system: HeLa; assay: as above; details: Homo sapiens, HeLa, 48 h; for GI50: read-out: GI50 HELA; for CC50: read-out: LC50 HELA; for IC (TGI): read-out: TGI HELA
Method in brief: as §1

[7] = test system: IGROV-1; assay: as above; details: Homo sapiens, IGROV-1, 48 h; for GI50: read-out: GI50 IGROV; for CC50: read-out: LC50 IGROV; for IC (TGI): read-out: TGI IGROV
Method in brief: as §1

[8] = test system: IGROV-ET; assay: as above; details: Homo sapiens, 48 h; for GI50: read-out: GI50 IGROV-ET; for CC50: read-out: LC50 IGROV-ET; for IC (TGI): read-out: TGI IGROV-ET
Method in brief: as §1

[9] = test system: K-562; assay: as above; details: Homo sapiens, K562, 48 h; for GI50: read-out: GI50 K562; for CC50: read-out: LC50 K562; for IC (TGI): read-out: TGI K562
Method in brief: as §1

[10] = test system: LNCaP; assay: as above; details: Homo sapiens, LNCaP, 48 h; for GI50: read-out: GI50 LNCAP; for CC50: read-out: LC50 LNCAP; for IC (TGI): read-out: TGI LNCAP
Method in brief: as §1

[11] = test system: LoVo-Dox; assay: as above; details: Homo sapiens, 48 h; for GI50: read-out: GI50 LOVO-DOX; for CC50: read-out: LC50 LOVO-DOX; for IC (TGI): read-out: TGI LOVO-DOX
Method in brief: as §1

[12] = test system: PANC-1; assay: as above; details: Homo sapiens, PANC-1, 48 h; for GI50: read-out: GI50 PANC-1; for CC50: read-out: LC50 PANC-1; for IC (TGI): read-out: TGI PANC-1
Method in brief: as §1

[13] = test system: SK-BR-3; assay: as above; details: Homo sapiens, SK-BR-3, 48 h; for GI50: read-out: GI50 SK-BR3; for CC50: read-out: LC50 SK-BR3; for IC (TGI): read-out: TGI SK-BR3
Method in brief: as §1

[14] = test system: SK-MEL-28; assay: as above; details: Homo sapiens, SK-MEL-28, 48 h; for GI50: read-out: GI50 MEL-28; for CC50: read-out: LC50 MEL-28; for IC (TGI): read-out: TGI MEL-28
Method in brief: as §1

With `COc1c(C)cc2c(c1O)[C@H]1N[C@@H](C2)[C@H](C#N)N2C1[C@@H]1SCC(NC(C)=O)C(=O)OC[C@H]2c2c3c(c(C)c(OC(C)=O)c21)OCO3` (stereo partly drawn) [compound 30] the GI50 [1] was 3.47 nM, the CC50 [1] was 89 nM and the IC (TGI) [1] was 10.5 nM. The GI50 [2] was 2.03 nM, the CC50 [2] was 15400 nM and the IC (TGI) [2] was 13.5 nM. For the same compound, the GI50 [3] was 2 nM, the CC50 [3] was 15400 nM and the IC (TGI) [3] was 8.07 nM. It also gave a GI50 [4] of 2.63 nM, a CC50 [4] of 14100 nM and an IC (TGI) [4] of 7.44 nM. It also gave a GI50 [5] of 1.86 nM, a CC50 [5] of 19.5 nM and an IC (TGI) [5] of 5.5 nM. For the same compound, the GI50 [6] was 1.15 nM, the CC50 [6] was 21.7 nM and the IC (TGI) [6] was 4.53 nM. For the same compound, the GI50 [7] was 0.695 nM, the CC50 [7] was 231 nM and the IC (TGI) [7] was 3.32 nM. For the same compound, the GI50 [8] was 25.4 nM, the CC50 [8] was 15400 nM and the IC (TGI) [8] was 82.4 nM. The GI50 [9] was 0.312 nM, the CC50 [9] was 9510 nM and the IC (TGI) [9] was 2.49 nM. It also gave a GI50 [10] of 96.8 nM, a CC50 [10] of 147 nM and an IC (TGI) [10] of 120 nM. The GI50 [11] was 207 nM, the CC50 [11] was 15400 nM and the IC (TGI) [11] was 2070 nM. It also gave a GI50 [12] of 2.89 nM, a CC50 [12] of 15400 nM and an IC (TGI) [12] of 15.5 nM. For the same compound, the GI50 [13] was 0.527 nM, the CC50 [13] was 267 nM and the IC (TGI) [13] was 2.29 nM. It also gave a GI50 [14] of 1.09 nM, a CC50 [14] of 10.7 nM and an IC (TGI) [14] of 3.66 nM.

`COc1c(C)cc2c(c1O)[C@H]1N[C@@H](C2)[C@H](C#N)N2C1[C@@H]1SCC(NC(=O)C(F)(F)F)C(=O)OC[C@H]2c2c3c(c(C)c(OC(C)=O)c21)OCO3` (stereo partly drawn) [compound 31] showed a GI50 [1] of 1.83 nM, a CC50 [1] of 92.1 nM and an IC (TGI) [1] of 5.97 nM. It also gave a GI50 [2] of 1.97 nM, a CC50 [2] of 3680 nM and an IC (TGI) [2] of 16.2 nM. For the same compound, the GI50 [3] was 0.688 nM, the CC50 [3] was 1820 nM and the IC (TGI) [3] was 3.49 nM. The GI50 [4] was 0.444 nM, the CC50 [4] was 2230 nM and the IC (TGI) [4] was 0.951 nM. For the same compound, the GI50 [5] was 0.576 nM, the CC50 [5] was 9.96 nM and the IC (TGI) [5] was 1.96 nM. The GI50 [6] was 0.678 nM, the CC50 [6] was 11.2 nM and the IC (TGI) [6] was 2.04 nM. For the same compound, the GI50 [7] was 0.413 nM, the CC50 [7] was 12.6 nM and the IC (TGI) [7] was 1.07 nM. For the same compound, the GI50 [8] was 2.91 nM, the CC50 [8] was 2090 nM and the IC (TGI) [8] was 7.49 nM. It also gave a GI50 [9] of 0.226 nM, a CC50 [9] of 126 nM and an IC (TGI) [9] of 0.792 nM. For the same compound, the GI50 [10] was 0.419 nM, the CC50 [10] was 90.7 nM and the IC (TGI) [10] was 16.3 nM. It also gave a GI50 [11] of 9.05 nM, a CC50 [11] of 7210 nM and an IC (TGI) [11] of 1480 nM. It also gave a GI50 [12] of 0.807 nM, a CC50 [12] of 1770 nM and an IC (TGI) [12] of 6.68 nM. It also gave a GI50 [13] of 0.396 nM, a CC50 [13] of 60.7 nM and an IC (TGI) [13] of 1.22 nM. The GI50 [14] was 0.832 nM, the CC50 [14] was 8.06 nM and the IC (TGI) [14] was 2.54 nM.

`CCCCCCCCCCCCCCCC(=O)NC1CS[C@@H]2c3c(OC(C)=O)c(C)c4c(c3[C@H](COC1=O)N1C2[C@@H]2N[C@@H](Cc3cc(C)c(OC)c(O)c32)[C@@H]1C#N)OCO4` (stereo partly drawn) [compound 32] showed a GI50 [1] of 2380 nM, a CC50 [1] of 7700 nM and an IC (TGI) [1] of 4290 nM. The GI50 [2] was 3480 nM, the CC50 [2] was 10700 nM and the IC (TGI) [2] was 6100 nM. The GI50 [3] was 1890 nM, the CC50 [3] was 7390 nM and the IC (TGI) [3] was 3760 nM. It also gave a GI50 [4] of 2480 nM, a CC50 [4] of 9390 nM and an IC (TGI) [4] of 4830 nM. The GI50 [5] was 33.9 nM, the CC50 [5] was 108 nM and the IC (TGI) [5] was 60.5 nM. The GI50 [6] was 253 nM, the CC50 [6] was 689 nM and the IC (TGI) [6] was 418 nM. It also gave a GI50 [7] of 1970 nM, a CC50 [7] of 7740 nM and an IC (TGI) [7] of 3910 nM. It also gave a GI50 [8] of 2850 nM, a CC50 [8] of 9670 nM and an IC (TGI) [8] of 5240 nM. For the same compound, the GI50 [9] was 694 nM, the CC50 [9] was 6810 nM and the IC (TGI) [9] was 2200 nM. The GI50 [10] was 1770 nM, the CC50 [10] was 6410 nM and the IC (TGI) [10] was 3360 nM. It also gave a GI50 [11] of 802 nM, a CC50 [11] of 6760 nM and an IC (TGI) [11] of 2480 nM. The GI50 [12] was 2560 nM, the CC50 [12] was 8790 nM and the IC (TGI) [12] was 4750 nM. For the same compound, the GI50 [13] was 263 nM, the CC50 [13] was 7520 nM and the IC (TGI) [13] was 1660 nM. The GI50 [14] was 2410 nM, the CC50 [14] was 7130 nM and the IC (TGI) [14] was 4140 nM.
